Like-named read-outs stand apart in the source and are kept apart here.
Legend:
[1] = test system: CCL2, CCL5, and CCL7 mRNA; assay: RT-qPCR of SASP factors CCL2, CCL5, CCL7; assay type: cell-based, mouse
From the text: (§1) RNA Preparation and Quantitative Real-Time PCR (RT-qPCR)

Cdkn1a (p21) mRNA = assay: RT-qPCR of senescence marker Cdkn1a; assay type: cell-based, mouse
From the text: as §1

MC3T3-E1 cells [2] = assay: Osteoblast differentiation by ALP and Alizarin Red S staining; assay type: cell-based, mouse
From the text: In addition, it was shown that and a level of protein and an expression of cdkn1a (p21) mRNA which is a molecular marker of cellular senescence, were increased by H2O2 treatment (B and C).

MC3T3-E1 cells [3] = assay: SA-β-gal staining of senescent cells; assay type: cell-based, mouse
Method: Senescence Associated-β-Galactosidase (SA-β-gal) Staining
SA-β-gal staining was performed with reference to the paper (2009) published by the Debacq-Chainiaux group. Cells cultured on coverslips were fixed in 4% paraformaldehyde at room temperature for 6 min. After washing cells three times with PBS, the cells were reacted for 16-24 hours in a staining solution [40 mM Na2HPO4, pH 6.0, 150 mM NaCl, 2 mM MgCl2, 5 mM K3Fe(CN)6, 5 mM K4Fe(CN)6 and 1 mg/ml X-Gal]. After washing 3 times with PBS, it was permeabilized with PBS containing 0.2% Triton X-100 at room temperature for 15 minutes. For nuclear staining, a mounting solution containing 4′,6-diamidino-2-phenylindole (DAPI) was used (AR-6501-01; ImmunoBioScience Corp., Mukilteo, Wash., USA). Images were acquired using an Eclipse TS-100 inverted microscope (Nikon). Using the ImageJ program, nucleus (DAPI) and SA-b-gal positive cells were counted in each image and compared as an average of % SA-β-gal positive cells (SA-β-gal positive cells/nuclear number×100) using the ImageJ program using 10 images of different parts per group.

[4] = test system: NFκB RelA transcription factor; conditions: MC3T3-E1 cells, 100 μM H2O2 for 24 h
Method: After collecting cells with PBS, a cell pellet was equally divided into two tubes for whole-cell lysate and cell fractionation. The whole-cell lysate prepared with 100 μL of lysis buffer composed of 25 mM Tris-HCl pH 7.4, 150 mM NaCl, 1% NP-40, 1 mM EDTA, 5% glycerol, protease inhibitor cocktail (Roche, #11-836-153-001), phosphatase inhibitor cocktail 2 and 3 (Sigma-Aldrich, P5726 and P004 SEQ ID NO: 4). The nuclear-cytoplasmic fraction was isolated using NEPER™ nuclear and cytoplasmic extraction reagents (78855; Life Technologies, Carlsbad, Calif., USA) according to a manufacturer's protocol. Protein concentration was determined using the Pierce™ BCA Protein Assay Kit (Thermo Fisher Scientific). The whole-cell lysate, a cytoplasmic extract and a nuclear extract were separated by SDS-PAGE, transferred to PVDF membrane, and then Western blot analysis was performed with designated primary and secondary antibodies. Tubulin and Lamin A/C were used as cytoplasmic and nuclear markers, respectively.
Cells cultured on coverslips were fixed in 4% paraformaldehyde, blocked with PBS containing 2% BSA, and then reacted in a refrigerator overnight in a primary antibody solution. […] A degree of fluorescence expression was observed using a confocal microscope (LSM 800, Carl Zeiss), and representative cells were selected and photographed.

p21 = conditions: MC3T3-E1 cells, H2O2 treatment
Method: (§2) Protein was extracted using a PRO-PREP protein extraction solution (Cat #17081, iNtRON, Korea) according to a manufacturer's protocol. The same amount of protein was transferred to a polyvinylidene fluoride (PVDF) membrane after sodium dodecyl sulfate polyacrylamide gel electrophoresis (SDS-PAGE). After blocking with 5% non-fat milk, membranes were blotted in primary antibody solution at 4° C. in a refrigerator overnight. A membrane reacted with a primary antibody was washed 3 times every 5 minutes with PBS-0.05% Tween 20 solution, then reacted with a secondary antibody for 1-2 hours at room temperature, and then the membrane was washed 3 times with PBS-0.05% Tween 20 solution for 5 minutes. Thereafter, the images were acquired on an ImageQuant LAS4000 Mini (GE Healthcare) using chemiluminescence (Clarity™ Western ECL Substrate, #170-5060; Bio-Rad). α-Tubulin or β-actin was used as a protein loading control.

PADI2 [5] = conditions: human-derived mesenchymal stromal cells (hMSC), 100 μM H2O2
Method: as §2
Total RNA was isolated using the RNeasy Mini Kit (Qiagen, Hilden, Germany). Total RNA (1 μg) was reverse transcribed into cDNA using PrimeScript RT Master Mix (Perfect Real Time) (RR036A; TaKaRa, Japan) and a real-time PCR was performed on an STEPONEPLUS™ Real-Time PCR System (APPLIED BIOSYSTEMS™) instr μMent using TB GREEN® PREMIX EX TAQ™ (RR420A; TaKaRa). […]

PADI2 [6] = assay: PADI2 expression (RT-qPCR, Western blot) in MC3T3-E1 cells; assay type: cell-based, mouse
From the text: as §1

[7] = 1 μM Bay11-7082 co-treated with 100 μM H2O2
[8] = Padi2 knockdown plus NFκB inhibition

| SMILES | expressions of CCL2, CCL5, and CCL7 (mRNA levels) increased by H2O2 ([1]; combined with H2O2 treatment) | expression of Cdkn1a (Cdkn1a (p21) mRNA; [7]) | Cdkn1a expression increased by Padi2 knockdown (Cdkn1a (p21) mRNA; [8]) | function degradation of osteoblast (ALP and ARS staining) (MC3T3-E1 cells [2]; caused by excessive ROS and Padi2 knockdown) | number of senescent cells increased by H2O2 alone (MC3T3-E1 cells [3]; [7]) | number of senescent cells increased by Padi2 knockdown (MC3T3-E1 cells [3]; [8]) | NFκB RelA activation and transfer from cytoplasm to nucleus [4] | level of p21 protein (p21) | expression of PADI2 (mRNA level and protein level) (PADI2 [5]) | CCL2, CCL5, and CCL7 in SASP (RNA-seq and RT-qPCR) ([1]; upon H2O2 treatment) | expression of cdkn1a (p21) mRNA (Cdkn1a (p21) mRNA; MC3T3-E1 cells, H2O2 treatment) | osteoblast differentiation function (ALP and Alizarin Red S staining) (MC3T3-E1 cells [2]; MC3T3-E1 cells, excessive ROS (H2O2)) | number of SA-β-gal positive cells (MC3T3-E1 cells [3]; MC3T3-E1 cells, 50 μM or 100 μM H2O2 for 3 days) | Padi2 mRNA level (PADI2 [6]; MC3T3-E1 cells, 100 μM H2O2 for 1, 4, and 7 days in differentiation medium, RT-qPCR) | expression of PADI2 (mRNA level and protein level) (PADI2 [6]; mouse-derived MC3T3-E1 cells, 100 μM H2O2) |
| --- | --- | --- | --- | --- | --- | --- | --- | --- | --- | --- | --- | --- | --- | --- | --- |
| Cc1ccc(S(=O)(=O)/C=C/C#N)cc1 [Bay11-7082] | significantly reduced | reduced | decreased | restored | reduced | decreased |  |  |  |  |  |  |  |  |  |
| OO [H2O2, hydrogen peroxide] |  |  |  |  |  |  | migration to the nucleus was observed | increased | significantly reduced | significantly increased | increased | significantly inhibited | increased in a H2O2 concentration-dependent manner | significantly reduced | significantly reduced |

From US20230203174A1, “COMPOSITION FOR PREVENTING OR ALLEVIATING CELLULAR SENESCENCE” (SEOUL NATIONAL UNIVERSITY R&DB FOUNDATION, priority 2021, published 2023)
